Measured values taken from patent publication US20240148821A1, “PHARMACEUTICAL USE OF CYCLIC PEPTIDE COMPOUND” (CHUGAI SEIYAKU KABUSHIKI KAISHA, priority 2021, published 2024).
Numbered stars: 1 amine (or outer) side, 2 acyl side, 3 side chain; on linkers, the order of the positions; unused ones are H or OH. Bridge positions count the residues as written; N and C are the ends. Square brackets hold non-standard residues; d marks the D form. Peptide text beside a SMILES is read from it. * marks the point of attachment. hPhe(3,5-F2-4-CF3) = N[C@@H](CCc1cc(F)c(C(F)(F)F)c(F)c1)C(=O)O; hPhe(3-Cl-4-CF3) = N[C@@H](CCc1ccc(C(F)(F)F)c(Cl)c1)C(=O)O; NMePhe(4-CF3) = CN[C@@H](Cc1ccc(C(F)(F)F)cc1)C(=O)O; hPhe(4-CF3) = N[C@@H](CCc1ccc(C(F)(F)F)cc1)C(=O)O; NMePhe(4-Cl) = CN[C@@H](Cc1ccc(Cl)cc1)C(=O)O; NEtPhe(2-Cl) = CCN[C@@H](Cc1ccccc1Cl)C(=O)O; NMePhe(4-Me) = CN[C@@H](Cc1ccc(C)cc1)C(=O)O; NMedβ3hAla = C[C@H](CC(=O)[*:2])N(C)[*:1]; NMeNva(5,5-F2) = CN[C@@H](CCC(F)F)C(=O)O; NMeGly(cPent) = CN[C@H](C(=O)O)C1CCCC1; Phe(3-I) = N[C@@H](Cc1cccc(I)c1)C(=O)O; Gly(cPent) = N[C@H](C(=O)O)C1CCCC1; NMeCha = CN[C@@H](CC1CCCCC1)C(=O)O; Ala(cPr) = N[C@@H](CC1CC1)C(=O)O; Hyp = O=C(O)[C@@H]1C[C@@H](O)CN1; NMeCba = CN[C@@H](CC1CCC1)C(=O)O; NMeChg = CN[C@H](C(=O)O)C1CCCCC1; NMeF = CN[C@@H](Cc1ccccc1)C(=O)O; X43 = O=C(CN(CCCCCO)[*:1])[*:2]; NMeD = CN[C@@H](CC(=O)O)C(=O)O; NMeL = CN[C@@H](CC(C)C)C(=O)O; NMeV = CN[C@H](C(=O)O)C(C)C; d(β3hA) = C[C@@H](N)CC(=O)O; Morpholide = C1CN(*)CCO1; NMeA = CN[C@@H](C)C(=O)O; NMeAib = CNC(C)(C)C(=O)O; Piperidide = C1CCN(*)CC1; Pyrrolidide = C1CCN(*)C1; Ac5c = NC1(C(=O)O)CCCC1; Aze = O=C(O)[C@@H]1CCN1; Ac4c = NC1(C(=O)O)CCC1; Sar = CNCC(=O)O

biological target: protein-protein interaction between Kras and SOS1 (biotin-tagged human Kras loaded with GDP, His-tagged human SOS1) (Homo sapiens (Human), UniProt P01116, G12D); test: Protein-protein interaction inhibition between Kras and SOS1 (KrasG12D-SOS PPI) using AlphaScreen; assay type: biochemical; details: not given;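 note: kras produced in E. coli, Ni-coupled donor beads and streptavidin acceptor beads, excitation 680 nm with emission detected at 520–620 nm via singlet oxygen transfer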

Compound | IC50 [nM]
CC[C@H](C)[C@@H]1NC(=O)[C@H](CC(C)C)N(C)C(=O)C[C@@H](C(=O)N(C)C)N(C)C(=O)[C@H](C2CCCC2)N(C)C(=O)C2(CCCC2)NC(=O)[C@H](CC(=O)N2CCCC2)N(C)C(=O)[C@H](CCc2ccc(C(F)(F)F)c(Cl)c2)NC(=O)CN(C)C(=O)[C@H](CC2CCCCC2)N(C)C(=O)[C@@H]2CCN2C(=O)[C@H](C)N(C)C1=O [Compound 2097] ([NMeL]I[NMeA][Aze][NMeCha][Sar][hPhe(3-Cl-4-CF3)][NMeD](Pyrrolidide)[Ac5c][NMeGly(cPent)][NMeD]-NMe2; lactam N-11) | 0.57
CC[C@H](C)[C@@H]1NC(=O)[C@H](CC(C)C)N(C)C(=O)C[C@@H](C(=O)N(C)C)N(C)C(=O)[C@H](C2CCCC2)N(C)C(=O)C2(CCCC2)NC(=O)[C@H](CC(=O)N2CCCCC2)N(C)C(=O)[C@H](CCc2ccc(C(F)(F)F)c(Cl)c2)NC(=O)CN(C)C(=O)[C@H](CC2CCCCC2)N(C)C(=O)[C@@H]2CCN2C(=O)[C@H](C)N(C)C1=O [Compound 2105] ([NMeL]I[NMeA][Aze][NMeCha][Sar][hPhe(3-Cl-4-CF3)][NMeD](Piperidide)[Ac5c][NMeGly(cPent)][NMeD]-NMe2; lactam N-11) | 2.6

same assay, conditions: AlphaScreen; biotin-tagged human Kras loaded with GDP, His-tagged human SOS1; read-out: KRAS G12D-SOS PPI IC50

Compound | IC50 [nM]
CC[C@H](C)[C@@H]1NC(=O)[C@H](CC(C)C)N(C)C(=O)C[C@@H](C(=O)N2CCCCC2)N(C)C(=O)[C@H](C(C)C)N(C)C(=O)C2(CCCC2)NC(=O)[C@@H]2CCCN2C(=O)[C@H](CCc2ccc(C(F)(F)F)c(Cl)c2)NC(=O)CN(C)C(=O)[C@H](CC2CCCCC2)N(C)C(=O)[C@@H]2CCN2C(=O)[C@H](CC2CCC2)N(C)C1=O [Compound 1603] ([NMeL]I[NMeCba][Aze][NMeCha][Sar][hPhe(3-Cl-4-CF3)]P[Ac5c][NMeV][NMeD]-Piperidide; lactam N-11) | 94
CC[C@H](C)[C@@H]1NC(=O)[C@H](C)N(C)C(=O)C[C@@H](C)NC(=O)[C@H](CC(C)C)N(C)C(=O)[C@H](Cc2ccccc2)N(C)C(=O)[C@H](CC(C)C)NC(=O)[C@H](CCc2ccc(C(F)(F)F)cc2)NC(=O)CN(C)C(=O)[C@H](Cc2ccc(Cl)cc2)N(C)C(=O)CN(C)C(=O)CN(C)C1=O [Compound 271] (cyclo(I[Sar][Sar][NMePhe(4-Cl)][Sar][hPhe(4-CF3)]L[NMeF][NMeL][d(β3hA)][NMeA])) | 65
CC(C)C[C@H]1C(=O)N[C@@H](CC2CC2)C(=O)N(C)[C@@H](C)C(=O)N2CC[C@H]2C(=O)N(C)[C@@H](CC2CCCCC2)C(=O)N(C)CC(=O)N[C@@H](CCc2ccc(C(F)(F)F)c(Cl)c2)C(=O)N2CCC[C@H]2C(=O)NC2(CCCC2)C(=O)N(C)[C@@H](C(C)C)C(=O)N[C@H](C)CC(=O)N1C [Compound 474] (cyclo([Ac5c][NMeV][d(β3hA)][NMeL][Ala(cPr)][NMeA][Aze][NMeCha][Sar][hPhe(3-Cl-4-CF3)]P)) | 280
CC[C@H](C)[C@@H]1NC(=O)[C@H](CC(C)C)N(C)C(=O)C[C@@H](C(=O)N2CCCCC2)N(C)C(=O)[C@H](C2CCCCC2)N(C)C(=O)C2(CCCC2)NC(=O)[C@@H]2CCCN2C(=O)[C@H](CCc2ccc(C(F)(F)F)c(Cl)c2)NC(=O)CN(C)C(=O)[C@H](CC2CCCCC2)N(C)C(=O)[C@@H]2CCN2C(=O)[C@H](C)N(C)C1=O [Compound 249] ([NMeL]I[NMeA][Aze][NMeCha][Sar][hPhe(3-Cl-4-CF3)]P[Ac5c][NMeChg][NMeD]-Piperidide; lactam N-11) | 1.6
CC[C@H](C)[C@@H]1NC(=O)[C@H](C)N(C)C(=O)C[C@@H](C)NC(=O)[C@H](C2CCCC2)N(C)C(=O)C2(CCCC2)NC(=O)[C@@H]2CCCN2C(=O)[C@H](CCc2ccc(C(F)(F)F)c(Cl)c2)NC(=O)CN(C)C(=O)[C@H](Cc2ccc(C)cc2)N(C)C(=O)[C@@H]2CCN2C(=O)[C@H](C)N(C)C1=O [Compound 1514] (cyclo([Ac5c][NMeGly(cPent)][d(β3hA)][NMeA]I[NMeA][Aze][NMePhe(4-Me)][Sar][hPhe(3-Cl-4-CF3)]P)) | 1
CC[C@H](C)[C@@H]1NC(=O)[C@H](C)N(C)C(=O)C[C@@H](C)NC(=O)[C@H](C(C)C)N(C)C(=O)[C@H](Cc2ccccc2)N(C)C(=O)[C@H](CC(C)C)N(C)C(=O)[C@H](CCc2ccc(C(F)(F)F)cc2)NC(=O)CN(C)C(=O)[C@H](Cc2ccc(Cl)cc2)N(C)C(=O)CN(C)C(=O)CN(C)C1=O [Compound 51] (cyclo(I[Sar][Sar][NMePhe(4-Cl)][Sar][hPhe(4-CF3)][NMeL][NMeF][NMeV][d(β3hA)][NMeA])) | 90
CC[C@H](C)[C@@H]1NC(=O)[C@H](C)N(C)C(=O)C[C@@H](C)N(C)C(=O)[C@H](C2CCCCC2)N(C)C(=O)C(C)(C)N(C)C(=O)[C@@H]2CCCN2C(=O)[C@H](CCc2ccc(C(F)(F)F)c(Cl)c2)NC(=O)CN(C)C(=O)[C@H](CC2CCCCC2)N(C)C(=O)[C@@H]2CCN2C(=O)[C@H](C)N(C)C1=O [Compound 2155] (cyclo([Aze][NMeCha][Sar][hPhe(3-Cl-4-CF3)]P[NMeAib][NMeChg][NMedβ3hAla][NMeA]I[NMeA])) | 28
CC[C@H](C)[C@@H]1NC(=O)[C@H](C)N(C)C(=O)C[C@@H](C(=O)N2CCOCC2)N(C)C(=O)[C@H](C(C)C)N(C)C(=O)C2(CCCC2)NC(=O)[C@H](Cc2ccccc2Cl)N(CC)C(=O)[C@H](CCc2ccc(C(F)(F)F)c(Cl)c2)NC(=O)CN(C)C(=O)[C@H](CC2CCCCC2)N(C)C(=O)CN(C)C(=O)CN(C)C1=O [Compound 2167] ([NMeA]I[Sar][Sar][NMeCha][Sar][hPhe(3-Cl-4-CF3)][NEtPhe(2-Cl)][Ac5c][NMeV][NMeD]-Morpholide; lactam N-11) | 380
CCO[C@@H]1C[C@H]2C(=O)NC3(CCC3)C(=O)N(C)[C@@H](C3CCCCC3)C(=O)N(C)[C@H](C)CC(=O)N(C)[C@@H](CC(C)C)C(=O)N[C@@H]([C@@H](C)CC)C(=O)N(C)[C@@H](C)C(=O)N3CC[C@H]3C(=O)N(C)[C@@H](Cc3ccc(C(F)(F)F)cc3)C(=O)N(C)CC(=O)N[C@@H](CCc3cc(F)c(C(F)(F)F)c(F)c3)C(=O)N2C1 [Compound 365] (cyclo([Ac4c][NMeChg][NMedβ3hAla][NMeL]I[NMeA][Aze][NMePhe(4-CF3)][Sar][hPhe(3,5-F2-4-CF3)][Hyp](Et))) | 38
CCO[C@@H]1C[C@H]2C(=O)N(C)[C@@H](Cc3ccccc3)C(=O)N(C)[C@@H](CC(C)C)C(=O)N[C@H](C(=O)N3CCCC3)CC(=O)N(C)[C@@H](C)C(=O)N[C@@H]([C@@H](C)CC)C(=O)N(C)CC(=O)N(C)CC(=O)N(C)[C@@H](Cc3ccc(Cl)cc3)C(=O)N(C)CC(=O)N[C@@H](Cc3cccc(I)c3)C(=O)N2C1 [Compound 634] ([NMeA]I[Sar][Sar][NMePhe(4-Cl)][Sar][Phe(3-I)][Hyp](Et)[NMeF][NMeL]D-Pyrrolidide; lactam N-11) | 260
CC[C@H](C)[C@@H]1NC(=O)[C@H](C2CCCCC2)N(C)C(=O)C[C@@H](C(=O)N2CCCCC2)N(C)C(=O)[C@H](C(C)C)N(C)C(=O)C2(CCCC2)NC(=O)[C@@H]2CCCN2C(=O)[C@H](CCc2ccc(C(F)(F)F)c(Cl)c2)NC(=O)CN(C)C(=O)[C@H](CC2CCCCC2)N(C)C(=O)[C@@H]2CCN2C(=O)[C@H](C)N(C)C1=O [Compound 58] ([NMeChg]I[NMeA][Aze][NMeCha][Sar][hPhe(3-Cl-4-CF3)]P[Ac5c][NMeV][NMeD]-Piperidide; lactam N-11) | 28
CC[C@H](C)[C@@H]1NC(=O)[C@H](CC(C)C)N(C)C(=O)C[C@@H](C(=O)N2CCCCC2)N(C)C(=O)[C@H](C2CCCCC2)N(C)C(=O)C2(CCCC2)NC(=O)CN(CCCCCO)C(=O)[C@H](CCc2ccc(C(F)(F)F)c(Cl)c2)NC(=O)CN(C)C(=O)[C@H](CC2CCCCC2)N(C)C(=O)CN(C)C(=O)CN(C)C1=O [Compound 2049, (11S,17S,26S,29S,33S,36S)-11-[2-[3-chloro-4-(trifluoromethyl)phenyl]ethyl]-36-cyclohexyl-17-(cyclohexylmethyl)-9-(5-hydroxypentyl)-29-isobutyl-15,18,21,24,30,34,37-heptamethyl-26-[(1S)-1-methylpropyl]-33-(piperidine-1-carbonyl)-6,9,12,15,18,21,24,27,30,34,37-undecazaspiro[4.33]octatriacontane-7,10,13,16,19,22,25,28,31,35,38-undecone] ([NMeL]I[Sar][Sar][NMeCha][Sar][hPhe(3-Cl-4-CF3)][X43][Ac5c][NMeChg][NMeD]-Piperidide; lactam N-11) | 4
CC[C@H](C)[C@@H]1NC(=O)[C@H](C)N(C)C(=O)C[C@@H](C)NC(=O)[C@H](C2CCCC2)N(C)C(=O)C2(CCCC2)NC(=O)[C@@H]2CCCN2C(=O)[C@H](CCc2ccc(C(F)(F)F)c(Cl)c2)NC(=O)CN(C)C(=O)[C@H](Cc2ccc(C(F)(F)F)cc2)N(C)C(=O)[C@@H]2CCCN2C(=O)CN(C)C1=O [Compound 749] (cyclo([Ac5c][NMeGly(cPent)][d(β3hA)][NMeA]I[Sar]P[NMePhe(4-CF3)][Sar][hPhe(3-Cl-4-CF3)]P)) | 2.8
CC(C)C[C@H]1C(=O)N[C@@H](C2CCCC2)C(=O)N(C)[C@@H](C)C(=O)N2CC[C@H]2C(=O)N(C)[C@@H](CC2CCCCC2)C(=O)N(C)CC(=O)N[C@@H](CCc2ccc(C(F)(F)F)c(Cl)c2)C(=O)N2CCC[C@H]2C(=O)NC2(CCCC2)C(=O)N(C)[C@@H](C(C)C)C(=O)N[C@H](C)CC(=O)N1C [Compound 966] (cyclo([Ac5c][NMeV][d(β3hA)][NMeL][Gly(cPent)][NMeA][Aze][NMeCha][Sar][hPhe(3-Cl-4-CF3)]P)) | 110
CC[C@H](C)[C@@H]1NC(=O)[C@H](CCC(F)F)N(C)C(=O)C[C@@H](C(=O)N2CCCCC2)N(C)C(=O)[C@H](C(C)C)N(C)C(=O)C2(CCCC2)NC(=O)[C@@H]2CCCN2C(=O)[C@H](CCc2ccc(C(F)(F)F)c(Cl)c2)NC(=O)CN(C)C(=O)[C@H](CC2CCCCC2)N(C)C(=O)[C@@H]2CCN2C(=O)[C@H](C)N(C)C1=O [Compound 1797] ([NMeNva(5,5-F2)]I[NMeA][Aze][NMeCha][Sar][hPhe(3-Cl-4-CF3)]P[Ac5c][NMeV][NMeD]-Piperidide; lactam N-11) | 3.7
